Test results: patent publication US20210115104A1, “AMYLIN ANALOGUES” (Zealand Pharma A/S, priority 2015, published 2021)
pEC50: −log10 of the molar value. *1 amine or outer side, *2 acyl side, *3 side chain or, on linkers, in order; H or OH if unused. Where a SMILES comes first, the peptide text is derived from it. Bridges are numbered along the chain shown (N, C = ends). [ ]: non-standard residue; d: D form. The star is where a group is joined. C20 diacid = O=C(O)CCCCCCCCCCCCCCCCCCC(=O)*; γGlu = O=C(O)[C@H](CCC(=O)[*:2])N[*:1]; Hyp = O=C(O)[C@@H]1C[C@@H](O)CN1; NMeI = CC[C@H](C)[C@H](NC)C(=O)O; Sar = CNCC(=O)O

Experiments:
[1] = biological target: T1, human calcitonin receptor (hCTR2) (Homo sapiens, UniProt P30988); assay: hCTR2 cAMP assay (AlphaScreen) in COS7 cells; assay type: cell-based; settings: cAMP induction, COS7 cells expressing hCTR2; Table 1; read-out: hCTR2 EC50
T1 construct: expressed in transfected cells
T1 sequence (P30988 25-474): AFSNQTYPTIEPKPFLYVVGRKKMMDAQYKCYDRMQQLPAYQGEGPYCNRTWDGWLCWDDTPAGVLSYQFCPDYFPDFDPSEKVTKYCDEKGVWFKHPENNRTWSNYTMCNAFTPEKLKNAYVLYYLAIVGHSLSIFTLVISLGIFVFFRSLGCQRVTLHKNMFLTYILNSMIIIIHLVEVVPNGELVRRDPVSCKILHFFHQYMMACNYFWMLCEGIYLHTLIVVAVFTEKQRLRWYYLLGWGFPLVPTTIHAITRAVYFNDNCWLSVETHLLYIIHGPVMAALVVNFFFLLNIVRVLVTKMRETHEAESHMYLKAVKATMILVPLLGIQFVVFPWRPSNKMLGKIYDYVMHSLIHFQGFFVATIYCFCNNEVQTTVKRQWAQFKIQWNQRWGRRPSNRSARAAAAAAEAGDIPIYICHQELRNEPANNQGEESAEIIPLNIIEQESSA
Procedure, shortened: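 cAMP induction, read by AlphaScreen after lysis, gives EC50 values via 4PL curve fitting. Peptides were applied at rising concentrations for 15 min at 37 °C, with IBMX and 0.1% casein in HEPES-buffered Tyrode pH 7.4, to COS7 cells (no endogenous RAMPs) stably expressing human CTR2.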

[2] = Assessment of chemical stability (RP-HPLC normalized purity); assay type: physicochemical; settings: for Normalized purity after 7 days, 40° C., pH 4: pH 4, 0.2 mg/ml; for Normalized purity after 7 days, 40° C., pH 4 / Normalized purity after 7 days, 40° C., pH 6 / Normalized purity after 7 days, 40° C., pH 7.5 / Normalized purity after 7 days, 40° C., pH 9: Table 1; for Normalized purity after 7 days, 40° C., pH 6: pH 6, 0.2 mg/ml; for Normalized purity after 7 days, 40° C., pH 7.5: pH 7.5, 0.2 mg/ml; for Normalized purity after 7 days, 40° C., pH 9: pH 9, 0.2 mg/ml
Procedure, shortened: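 Purity after 7 days at 40° C is expressed relative to T=0 (set to 100) for each pH. Samples at 0.2 mg/ml, pH 4, 6, 7.5 or 9, analyzed by RP-HPLC with UV 220 nm on C8 (ammonium formate) or C18 (TFA) gradients.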

| Compound | pEC50 [1] | Normalized purity after 7 days, 40° C., pH 4 [2] | Normalized purity pH 4 (Table 5) ([2]; pH 4, repeat of Example 6 for pairs with/without Asn-Asn at 21-22) | Normalized purity after 7 days, 40° C., pH 6 [2] | Normalized purity pH 6 (Table 5) ([2]; pH 6, repeat of Example 6 for pairs with/without Asn-Asn at 21-22) | Normalized purity after 7 days, 40° C., pH 7.5 [2] | Normalized purity pH 7.5 (Table 5) ([2]; pH 7.5, repeat of Example 6 for pairs with/without Asn-Asn at 21-22) | Normalized purity after 7 days, 40° C., pH 9 [2] | Normalized purity pH 9 (Table 5) ([2]; pH 9, repeat of Example 6 for pairs with/without Asn-Asn at 21-22) |
| --- | --- | --- | --- | --- | --- | --- | --- | --- | --- |
| CC[C@H](C)[C@@H](C(=O)N[C@@H](CC(C)C)C(=O)N[C@@H](CO)C(=O)N[C@@H](CO)C(=O)N[C@H](C(=O)N[C@@H](CCC(=O)O)C(=O)N[C@H](C(=O)NCC(=O)N[C@@H](CO)C(=O)N[C@@H](CC(N)=O)C(=O)N[C@H](C(=O)N1C[C@H](O)C[C@H]1C(N)=O)[C@@H](C)O)C(C)C)[C@@H](C)O)N(C)C(=O)[C@H](C)NC(=O)CN(C)C(=O)[C@H](Cc1ccccc1)NC(=O)[C@H](CO)NC(=O)[C@H](CO)NC(=O)[C@H](CCCNC(=N)N)NC(=O)[C@H](CCC(N)=O)NC(=O)[C@H](CC(C)C)NC(=O)[C@H](Cc1ccccc1)NC(=O)[C@H](Cc1c[nH]cn1)NC(=O)[C@H](C)NC(=O)[C@H](CC(C)C)NC(=O)[C@H](CCCNC(=N)N)NC(=O)[C@H](CCC(=O)O)NC(=O)[C@@H](NC(=O)[C@H](C)NC(=O)[C@@H]1CSSC[C@H](NC(=O)[C@H](CCCNC(=N)N)NC(=O)CC[C@H](NC(=O)CCCCCCCCCCCCCCCCCCC(=O)O)C(=O)O)C(=O)N[C@@H](CCC(N)=O)C(=O)N[C@@H]([C@@H](C)O)C(=O)N[C@@H](C)C(=O)N[C@@H]([C@@H](C)O)C(=O)N1)[C@@H](C)O [Compound 57, [19CD]-isoGlu-R-C( )-QTAT-C( )-ATERLAHFLQRSSF-Gly(Me)-A-Ile(Me)-LSSTEVGSNT-Hyp-NH2] ({C20 diacid-γGlu}-RCQTATCATERLAHFLQRSSF[Sar]A[NMeI]LSSTEVGSNT[Hyp]-NH2; disulfide 2-7) | 10.10 | A (A = >90%) | A (A = >90%) | A (A = >90%) | A (A = >90%) | A (A = >90%) | A (A = >90%) | A (A = >90%) | B (B = 70-90%) |
| CC[C@H](C)[C@@H](C(=O)N[C@@H](CC(C)C)C(=O)N[C@@H](CO)C(=O)N[C@@H](CO)C(=O)N[C@H](C(=O)N[C@@H](CCC(=O)O)C(=O)N[C@H](C(=O)NCC(=O)N[C@@H](CO)C(=O)N[C@@H](CC(N)=O)C(=O)N[C@H](C(=O)N1C[C@H](O)C[C@H]1C(N)=O)[C@@H](C)O)C(C)C)[C@@H](C)O)N(C)C(=O)[C@H](C)NC(=O)CN(C)C(=O)[C@H](Cc1ccccc1)NC(=O)[C@H](CO)NC(=O)[C@H](CO)NC(=O)[C@H](CCCNC(=N)N)NC(=O)[C@H](CCC(N)=O)NC(=O)[C@H](CC(C)C)NC(=O)[C@H](Cc1ccccc1)NC(=O)[C@H](CC(=O)O)NC(=O)[C@H](C)NC(=O)[C@H](CC(C)C)NC(=O)[C@H](CCCNC(=N)N)NC(=O)[C@H](CCC(N)=O)NC(=O)[C@@H](NC(=O)[C@H](C)NC(=O)[C@@H]1CSSC[C@H](NC(=O)[C@H](CCCNC(=N)N)NC(=O)CC[C@H](NC(=O)CCCCCCCCCCCCCCCCCCC(=O)O)C(=O)O)C(=O)N[C@@H](CC(N)=O)C(=O)N[C@@H]([C@@H](C)O)C(=O)N[C@@H](C)C(=O)N[C@@H]([C@@H](C)O)C(=O)N1)[C@@H](C)O [Compound 49, [19CD]-isoGlu-R-C( )-NTAT-C( )-ATQRLADFLQRSSF-Gly(Me)-A-Ile(Me)-LSSTEVGSNT-Hyp-NH2] ({C20 diacid-γGlu}-RCNTATCATQRLADFLQRSSF[Sar]A[NMeI]LSSTEVGSNT[Hyp]-NH2; disulfide 2-7) | 10.22 | A (A = >90%) | – | A (A = >90%) | – | A (A = >90%) | – | B (B = 70-90%) | – |
| CC[C@H](C)[C@@H](C(=O)N[C@@H](CC(C)C)C(=O)N[C@@H](CO)C(=O)N[C@@H](CO)C(=O)N[C@H](C(=O)N[C@@H](CCC(=O)O)C(=O)N[C@H](C(=O)NCC(=O)N[C@@H](CO)C(=O)N[C@@H](CO)C(=O)N[C@H](C(=O)N1CCC[C@H]1C(N)=O)[C@@H](C)O)C(C)C)[C@@H](C)O)N(C)C(=O)[C@H](C)NC(=O)CN(C)C(=O)[C@H](Cc1ccccc1)NC(=O)[C@H](CO)NC(=O)[C@H](CO)NC(=O)[C@H](CCCNC(=N)N)NC(=O)[C@H](CCC(N)=O)NC(=O)[C@H](CC(C)C)NC(=O)[C@H](Cc1ccccc1)NC(=O)[C@H](Cc1c[nH]cn1)NC(=O)[C@H](C)NC(=O)[C@H](CC(C)C)NC(=O)[C@H](CCCNC(=N)N)NC(=O)[C@H](CCC(=O)O)NC(=O)[C@@H](NC(=O)[C@H](C)NC(=O)[C@@H]1CSSC[C@H](NC(=O)[C@H](CCCNC(=N)N)NC(=O)CC[C@H](NC(=O)CCCCCCCCCCCCCCCCCCC(=O)O)C(=O)O)C(=O)NCC(=O)N[C@@H]([C@@H](C)O)C(=O)N[C@@H](C)C(=O)N[C@@H]([C@@H](C)O)C(=O)N1)[C@@H](C)O [Compound 34, [19CD]-isoGlu-R-C( )-GTAT-C( )-ATERLAHFLQRSSF-Gly(Me)-A-Ile(Me)-LSSTEVGSSTP-NH2] ({C20 diacid-γGlu}-RCGTATCATERLAHFLQRSSF[Sar]A[NMeI]LSSTEVGSSTP-NH2; disulfide 2-7) | 10.05 | A (A = >90%) | – | B (B = 70-90%) | – | B (B = 70-90%) | – | B (B = 70-90%) | – |
| CC[C@H](C)[C@@H](C(=O)N[C@@H](CC(C)C)C(=O)N[C@@H](CO)C(=O)N[C@@H](CO)C(=O)N[C@H](C(=O)N[C@@H](CCC(=O)O)C(=O)N[C@H](C(=O)NCC(=O)N[C@@H](CO)C(=O)N[C@@H](CC(N)=O)C(=O)N[C@H](C(=O)N1C[C@H](O)C[C@H]1C(N)=O)[C@@H](C)O)C(C)C)[C@@H](C)O)N(C)C(=O)[C@H](C)NC(=O)CN(C)C(=O)[C@H](Cc1ccccc1)NC(=O)[C@H](CO)NC(=O)[C@H](CO)NC(=O)[C@H](CCCNC(=N)N)NC(=O)[C@H](CC(N)=O)NC(=O)[C@H](CC(C)C)NC(=O)[C@H](Cc1ccccc1)NC(=O)[C@H](Cc1c[nH]cn1)NC(=O)[C@H](C)NC(=O)[C@H](CC(C)C)NC(=O)[C@H](CCCNC(=N)N)NC(=O)[C@H](CCC(=O)O)NC(=O)[C@@H](NC(=O)[C@H](C)NC(=O)[C@@H]1CSSC[C@H](NC(=O)[C@H](CCCNC(=N)N)NC(=O)CC[C@H](NC(=O)CCCCCCCCCCCCCCCCCCC(=O)O)C(=O)O)C(=O)NCC(=O)N[C@@H]([C@@H](C)O)C(=O)N[C@@H](C)C(=O)N[C@@H]([C@@H](C)O)C(=O)N1)[C@@H](C)O [Compound 6, [19CD]-isoGlu-R-C( )-GTAT-C( )-ATERLAHFLNRSSF-Gly(Me)-A-Ile(Me)-LSSTEVGSNT-Hyp-NH2] ({C20 diacid-γGlu}-RCGTATCATERLAHFLNRSSF[Sar]A[NMeI]LSSTEVGSNT[Hyp]-NH2; disulfide 2-7) | 10.11 | A (A = >90%) | – | B (B = 70-90%) | – | – | – | B (B = 70-90%) | – |
| CC[C@H](C)[C@@H](C(=O)N[C@@H](CC(C)C)C(=O)N[C@@H](CO)C(=O)N[C@@H](CO)C(=O)N[C@H](C(=O)N[C@@H](CCC(=O)O)C(=O)N[C@H](C(=O)NCC(=O)N[C@@H](CO)C(=O)N[C@@H](CC(N)=O)C(=O)N[C@H](C(=O)N1CCC[C@H]1C(N)=O)[C@@H](C)O)C(C)C)[C@@H](C)O)N(C)C(=O)[C@H](C)NC(=O)CN(C)C(=O)[C@H](Cc1ccccc1)NC(=O)[C@H](CO)NC(=O)[C@H](CO)NC(=O)[C@H](CCCNC(=N)N)NC(=O)[C@H](Cc1c[nH]cn1)NC(=O)[C@H](CC(C)C)NC(=O)[C@H](Cc1ccccc1)NC(=O)[C@H](Cc1c[nH]cn1)NC(=O)[C@H](C)NC(=O)[C@H](CC(C)C)NC(=O)[C@H](CCCNC(=N)N)NC(=O)[C@H](CCC(=O)O)NC(=O)[C@@H](NC(=O)[C@H](C)NC(=O)[C@@H]1CSSC[C@H](NC(=O)[C@H](CCCNC(=N)N)NC(=O)CC[C@H](NC(=O)CCCCCCCCCCCCCCCCCCC(=O)O)C(=O)O)C(=O)NCC(=O)N[C@@H]([C@@H](C)O)C(=O)N[C@@H](C)C(=O)N[C@@H]([C@@H](C)O)C(=O)N1)[C@@H](C)O [Compound 15, [19CD]-isoGlu-R-C( )-GTAT-C( )-ATERLAHFLHRSSF-Gly(Me)-A-Ile(Me)-LSSTEVGSNTP-NH2] ({C20 diacid-γGlu}-RCGTATCATERLAHFLHRSSF[Sar]A[NMeI]LSSTEVGSNTP-NH2; disulfide 2-7) | 10.36 | A (A = >90%) | – | B (B = 70-90%) | – | B (B = 70-90%) | – | B (B = 70-90%) | – |
